Assay results: patent US8846704B2, “Thiopyrimidine-based compounds and uses thereof” (YM Biosciences Austraila Pty Ltd, priority 2007, dated 2014)
pIC50: −log10 of the molar value.

Biological target: T1, human CSF1-R (FMS) (Homo sapiens, UniProt P07333)
T1 construct: from codon I553 to Q961; GST (N); made in house; host or cells: Sf9 insect cells (baculovirus)
T1 sequence (P07333 553-961): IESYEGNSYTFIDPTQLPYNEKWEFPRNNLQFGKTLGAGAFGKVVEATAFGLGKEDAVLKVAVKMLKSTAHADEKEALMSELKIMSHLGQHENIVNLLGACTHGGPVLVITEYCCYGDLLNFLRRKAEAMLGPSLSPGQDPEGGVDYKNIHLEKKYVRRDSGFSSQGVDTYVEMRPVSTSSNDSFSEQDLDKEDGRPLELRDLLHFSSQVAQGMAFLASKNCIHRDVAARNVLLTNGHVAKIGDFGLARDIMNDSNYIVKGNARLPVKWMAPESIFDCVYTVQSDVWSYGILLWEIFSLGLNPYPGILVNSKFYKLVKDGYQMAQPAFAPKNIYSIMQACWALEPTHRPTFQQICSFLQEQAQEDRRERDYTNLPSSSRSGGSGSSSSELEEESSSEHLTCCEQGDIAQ
Experiment: Alphascreen tyrosine kinase enzyme assay, CSF-1R (FMS) kinase domain
Format: biochemical
Details: read-out: FMS, FLT3, or HCK IC50_nM (FMS)
Experimental: For screening purposes, compounds (in 100% DMSO) were warmed at 37 degrees for at least 20 minutes before use. A […] stock was initially made in assay buffer, where the final concentration of DMSO was 0.3%. The stocks were then diluted in 384 well Optiplates (Packard) where the final concentration of the compound was […].
The kinase domain of human CSF1-R from codon I553 to Q961 was cloned into the pDest20 expression vector (Invitrogen). The CSF1-R plasmid was then transformed into competent DH10Bac cells (Gibco), and the recombinant baculovirus produced prepared for transfection into Sf9 insect cells.
Baculovirus preparations from each of the constructs were infected into either one or five liters of Sf9 cells (Invitrogen) grown in SF-900 medium (Invitrogen) to a cell density of approximately 1-2×10^6 cells/ml. Cells were infected with virus at a MOI of 0.8-3.0. Cells were harvested and lysed. Tyrosine kinase domains were purified by affinity chromatography on a glutathione-agarose column (Scientifix Pty. Ltd. catalog #: GSH-200).
Kinase assays were performed in 384 well Optiplates (Packard) using an Alphascreen Protein Tyrosine Kinase PY100 detection kit The compounds were pre-incubated with affinity purified PTK domain in the presence of phosphotyrosine assay buffer (10 mM HEPES, pH 7.5, 100 mM MgCl2, 25 mM NaCl, […] and 0.1% Tween 20) for 20 minutes. The compounds were then incubated with substrate in the presence of ATP. The substrate used was susbtrate-1 with the sequence biotin-EGPWLEEEEEAYGWMDF-NH2 [SEQ. ID. NO. 13] (final concentration […]). For HCK 80 μm ATP was used and incubated for 60 minutes. Alphascreen phosphotyrosine acceptor beads followed by streptavidin donor beads at a concentration of 1/100 in stop buffer were added to each well under subdued light and incubated for 2-3 hours., The Alphascreen plates were read on a Packard Fusion Alpha instrument.

Row | SMILES | pIC50
1 | C=CC(=O)Nc1ccc(Sc2ccnc(Nc3cccc(N4CCOCC4)c3)n2)cc1 [Compound 77, N-(4-(2-(3-morpholinophenylao)pyrimidin-4-ylthio)phenyl)acrylamide] | > 6.30
2 | C=CC(=O)Nc1ccc(Sc2ccnc(Nc3cc(C)cc(C)c3)n2)cc1 [Compound 82, N-(4-(2-(3,5-dimethylphenylao)pyrimidin-4-ylthio)phenyl)acrylamide] | > 6.30
